Source: patent publication US8946268B2, “Modulators of HEC1 activity and methods therefor” (Taivex Therapeutics, Inc., priority 2010, dated 2015)
pIC50: −log10 of the molar value.

Legend:
Assay type in all cases: cell-based
Hela = experiment: Antiproliferative activity (MTS assay), Hela; details: Homo sapiens, HeLa, 96 h, Hela cells
Procedure: (§1) Antiproliferative effect is expressed as IC50 values in microMolar final concentration.
(§2) Cells were grown at 37° C. in a humidified atmosphere with 5% CO2 and 95% air. Cells were seeded in 96 well tissue culture plates.
(§3) Compound treatment started after overnight incubation of cells (TO). […] Compound was added to the plate in triplicate wells, and the plates were then incubated for 96 hours. DMSO (compounds diluents) was also included and added to the plate in control wells. Cell viability was then determined by MTS assay using CellTiter 96® AQueous non-radioactive cell proliferation assay system (Promega). A plate reader (Molecular Devices, Vmax) was used to read the optical densities, and the results were used to deduce concentration-response curves. […] The results were analyzed using linear regression software (GraphPad Prism 5; GraphPad Software Inc.).
(§4) The GI50 values (growth inhibitory activity) were determined to emphasize on the correction for the cell count at time zero; thus, the % inhibition of test drug were: [1−(T−T0)/(C−T0)]×100; and these value were used to plot the concentration-response curves, and then analyzed with linear regression software (GraphPad Prism 5).

K562 = experiment: Antiproliferative activity (MTS assay), K562; details: Homo sapiens, K562, 96 h, K562 cells
Procedure: as §1, §2, §3, §4

MDA-MB-468 = experiment: Antiproliferative activity (MTS assay), MDA-MB-468; details: Homo sapiens, MDA-MB-468, 96 h, MDA-MB-468 cells
Procedure: as §1, §2, §3, §4

MDA-MB-231 = experiment: Antiproliferative activity (MTS assay), MDA-MB-231; details: Homo sapiens, MDA-MB-231, 96 h, MDA-MB-231 cells
Procedure: as §1, §2, §3, §4

Compound	pIC50 (Hela)	pIC50 (K562)	pIC50 (MDA-MB-468)	pIC50 (MDA-MB-231)
COc1ccc(-c2csc(NC(=O)c3ccnc(Cl)c3)n2)cc1 [Compound 54]	5.23	5.18	5.16	5.34
COc1ccc(-c2csc(NC(=O)c3ccccn3)n2)cc1 [Compound 17]	< 5.00	< 5.00	< 5.00	< 5.00
Cc1ccc(-c2csc(NC(=O)c3ccncc3)n2)cc1 [Compound 6]	5.98	5.83	5.94	6.17
COc1cc(-c2csc(NC(=O)c3cncs3)n2)ccc1O [Compound 50]	< 5.00	< 5.00	< 5.00	< 5.00
COc1cc(-c2csc(NC(=O)c3ccncc3)n2)cc(OC)c1OC [Compound 27]	< 5.00	< 5.00	< 5.00	< 5.00
Cc1cc(-c2ccccc2)cc(C)c1-c1csc(NC(=O)c2ccncc2)n1 [Compound 53]	6.32	6.21	6.32	6.37
COc1cc(-c2csc(NC(=O)c3ccnnc3)n2)ccc1O [Compound 47]	< 5.00	< 5.00	< 5.00	< 5.00
COc1ccc(-c2csc(NC(=O)CCc3ccccc3)n2)c(F)c1 [Compound 23]	< 5.00	< 5.00	5.15	< 5.00
Cc1cc(C)c(-c2csc(NC(=O)c3ccsc3)n2)c(C)c1 [Compound 33]	< 5.00	< 5.00	6.10	< 5.00
COc1c(F)cc(-c2csc(NC(=O)c3ccncc3)n2)cc1F [Compound 62]	< 5.00	5.15	5.26	5.40
Cc1cc(Nc2ccccc2)c(Br)c(C)c1-c1csc(NC(=O)c2ccncc2)n1 [Compound 123]	6.06	6.48	6.06	6.21
Cc1cc(S(C)(=O)=O)cc(C)c1-c1csc(NC(=O)c2ccncc2)n1 [Compound 127]	6.08	6.28	6.34	6.35
COc1ccc(-c2csc(NC(=O)c3cccnc3)n2)cc1 [Compound 37]	< 5.00	< 5.00	< 5.00	< 5.00
COc1ccc(Oc2cc(C)c(-c3csc(NC(=O)c4ccnc(F)c4)n3)c(C)c2)cc1 [Compound 98]	7.40	7.70	7.40	7.70
COc1ccccc1Oc1cc(C)c(-c2csc(NC(=O)c3ccncc3)n2)c(C)c1 [Compound 111]	6.48	6.74	6.48	6.60
O=C(Nc1nc(-c2ccc(O)cc2)cs1)c1cccnc1 [Compound 60]	< 5.00	< 5.00	< 5.00	< 5.00
Cc1cc(C)c(-c2csc(NC(=O)c3ccnc(Cl)c3)n2)c(C)c1 [Compound 64]	6.08	6.03	6.01	6.21
COc1cc(-c2csc(NC(=O)c3ccsc3)n2)ccc1O [Compound 49]	< 5.00	< 5.00	< 5.00	< 5.00
Cc1cc(C)c(-c2csc(NC(=O)c3ccnc(N(C)C)c3)n2)c(C)c1 [Compound 92]	< 5.00	6.35	5.48	5.66
Cc1ccc(-c2csc(NC(=O)c3ccc(C#N)cc3)n2)cc1 [Compound 7]	< 5.00	< 5.00	< 5.00	< 5.00
Cc1cc(C)c(-c2csc(NC(=O)c3ccncc3)n2)c(C)n1 [Compound 44]	< 5.00	5.71	6.00	5.91
COCCOc1cc(C)c(-c2csc(NC(=O)c3ccncc3)n2)c(C)c1 [Compound 109]	6.51	6.62	6.55	6.59
CC(=O)Nc1cc(C(=O)Nc2nc(-c3c(C)cc(C)cc3C)cs2)ccn1 [Compound 89]	< 5.00	< 5.00	5.09	< 5.00
COc1cc(OC)c(-c2csc(NC(=O)c3ccncc3)n2)c(OC)c1 [Compound 11]	< 5.00	< 5.00	< 5.00	< 5.00
COc1cc(-c2csc(NC(=O)c3cccnc3)n2)ccc1O [Compound 35]	< 5.00	< 5.00	< 5.00	< 5.00

Compound	pIC50 (Hela)	pIC50 (K562)	pIC50 (MDA-MB-468)	pIC50 (MDA-MB-231)
COc1ccc(Oc2cc(C)c(-c3csc(NC(=O)c4ccnc(N)c4)n3)c(C)c2)cc1 [Compound 128]	6.62	6.72	6.80	6.80
COc1cc(-c2csc(NC(=O)c3ccccn3)n2)cc(OC)c1OC [Compound 25]	< 5.00	< 5.00	< 5.00	< 5.00
Cc1cc(C)c(-c2csc(NC(=O)c3cc(Cl)nc(Cl)c3)n2)c(C)c1 [Compound 88]	< 5.00	5.08	4.81	5.10
Cc1cc(C)c(-c2csc(NC(=O)c3cncs3)n2)c(C)c1 [Compound 9]	5.82	5.57	5.74	5.91
COc1ccc(Oc2cc(C)c(-c3csc(NC(=O)c4ccncc4)n3)c(Cl)c2)cc1 [Compound 131]	7.22	7.40	7.30	7.40
COc1ccc([S+]([O-])c2cc(C)c(-c3csc(NC(=O)c4ccncc4)n3)c(C)c2)cc1 (stereo not shown) [Compound 130]	6.74	7.10	6.85	7.05
Cc1ccc(Sc2cc(C)c(-c3csc(NC(=O)c4ccncc4)n3)c(C)c2)cc1 [Compound 116]	6.82	6.96	6.89	6.92
Cc1cc(I)cc(C)c1-c1csc(NC(=O)c2ccncc2)n1 [Compound 114]	6.40	6.64	6.26	6.52
Cc1cc(OCC(C)O)cc(C)c1-c1csc(NC(=O)c2ccncc2)n1 (stereo not shown) [Compound 94]	6.64	6.64	6.41	6.52
Cc1cc(Nc2ccc(Br)cc2)cc(C)c1-c1csc(NC(=O)c2ccncc2)n1 [Compound 122]	5.67	6.44	5.91	6.14
COc1ccccc1CC(=O)Nc1nc(-c2ccccc2)c(C)s1 [Compound 41]	< 5.00	< 5.00	< 5.00	< 5.00
CCOc1cc(C)c(-c2csc(NC(=O)c3ccnc(Cl)c3)n2)c(C)c1 [Compound 66]	6.70	6.68	6.62	6.96
COc1cc(-c2csc(NC(=O)c3cccnc3)n2)cc(OC)c1OC [Compound 20]	< 5.00	< 5.00	< 5.00	< 5.00
Cc1cc(C)c(-c2csc(NC(=O)c3cc(F)nc(F)c3)n2)c(C)c1 [Compound 90]	5.94	6.00	5.91	6.10
CC(=O)Nc1cc(C)c(-c2csc(NC(=O)Nc3ccncc3)n2)c(C)c1 [Compound 68]	5.29	5.30	5.44	5.37
COc1cc(C(=O)Nc2nc(-c3c(C)cc(C)cc3C)cs2)ccn1 [Compound 86]	5.76	6.16	5.60	6.11
Cc1ccc(-c2nc(NC(=O)c3cccnc3)sc2C)cc1 [Compound 31]	< 5.00	< 5.00	< 5.00	< 5.00
Cc1cc(C)c(-c2csc(NC(=O)c3ccnc(N4CCN(C)CC4)c3)n2)c(C)c1 [Compound 84]	< 5.00	< 5.00	4.54	< 5.00
Cc1ccc(-c2csc(NC(=O)c3cccnc3)n2)cc1 [Compound 28]	< 5.00	< 5.00	< 5.00	< 5.00
Cc1cc(C)c(-c2csc(NC(=O)c3ccc4[nH]ncc4c3)n2)c(C)c1 [Compound 105]	< 5.00	< 5.00	5.10	< 5.00
Cc1ccc(-c2nc(NC(=O)c3ccncc3)sc2C)cc1 [Compound 43]	< 5.00	< 5.00	< 5.00	< 5.00
Cc1cc(C)c(-c2csc(NC(=O)c3ccc4cn[nH]c4c3)n2)c(C)c1 [Compound 104]	< 5.00	5.61	5.12	5.96
COc1cc(-c2csc(NC(=O)c3ccncc3)n2)ccc1O [Compound 34]	< 5.00	< 5.00	< 5.00	< 5.00
COc1ccc(-c2csc(NC(=O)c3cccnc3)n2)c(OC)c1 [Compound 15]	< 5.00	< 5.00	< 5.00	< 5.00
